Test results as given in US10434181B2, “Oligomer-containing benzamide-based compounds” (Nektar Therapeutics, priority 2012, dated 2019).
Where “and” joins values, the source holds several entries; their conditions need not be identical. Equal entries are not always repeated. Where two headings read alike, the source gives them in different places. Marks after values point to notes of the source that are not given here.

Assays:
[1] = target: T1, 5HT4B receptors (serotonin 4B receptors) (Homo sapiens, UniProt Q13639); assay: Competition binding assay (serotonin 4B receptors), [3H]GR113808; settings: for Fold-change Relative to Parent: IC50 relative to metoclopramide, 5HT4B binding; for IC50: [3H]GR113808 competition, HEK 293 membranes expressing 5HT4B
T1 construct: expressed in transfected cells
T1 sequence (Q13639 whole entry): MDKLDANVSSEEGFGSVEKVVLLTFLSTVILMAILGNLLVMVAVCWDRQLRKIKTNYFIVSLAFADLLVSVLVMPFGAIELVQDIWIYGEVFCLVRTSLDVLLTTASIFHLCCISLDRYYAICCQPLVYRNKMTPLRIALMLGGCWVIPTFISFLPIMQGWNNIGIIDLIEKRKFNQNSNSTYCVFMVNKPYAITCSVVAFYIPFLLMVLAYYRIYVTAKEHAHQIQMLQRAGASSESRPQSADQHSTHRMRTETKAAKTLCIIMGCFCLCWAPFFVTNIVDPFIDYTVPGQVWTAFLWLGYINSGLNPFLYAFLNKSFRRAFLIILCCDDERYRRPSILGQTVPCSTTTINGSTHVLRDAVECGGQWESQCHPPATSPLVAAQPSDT

[2] = target: T2, 5HT3A receptors (serotonin 3A receptors) (Homo sapiens, UniProt P46098); assay: Competition binding assay (serotonin 3A receptors), [3H]GR65630; settings: for Fold-change Relative to Parent: IC50 relative to metoclopramide, 5HT3A binding; for IC50: [3H]GR65630 competition, HEK 293 membranes expressing 5HT3A
T2 construct: expressed in transfected cells
T2 sequence (P46098 24-478): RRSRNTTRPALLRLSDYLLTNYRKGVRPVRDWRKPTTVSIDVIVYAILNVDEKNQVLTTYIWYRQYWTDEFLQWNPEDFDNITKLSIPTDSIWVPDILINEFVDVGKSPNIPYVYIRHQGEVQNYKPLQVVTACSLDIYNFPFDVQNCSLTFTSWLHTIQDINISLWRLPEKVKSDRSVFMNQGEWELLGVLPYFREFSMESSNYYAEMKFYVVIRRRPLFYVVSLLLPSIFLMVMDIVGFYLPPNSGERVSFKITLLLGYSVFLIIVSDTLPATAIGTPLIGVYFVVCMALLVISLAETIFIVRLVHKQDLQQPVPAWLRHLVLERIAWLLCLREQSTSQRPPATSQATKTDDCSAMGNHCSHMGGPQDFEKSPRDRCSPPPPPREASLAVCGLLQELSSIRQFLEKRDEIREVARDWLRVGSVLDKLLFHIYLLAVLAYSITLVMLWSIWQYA
Procedure: [^3H] […] To start the assay, 1 uL of compound was added into 96-well v-bottom plates, followed by the addition of 50 uL of diluted membrane preparation, then finally diluted [^3H] […] The assay mixture was incubated for 60 minutes at room temperature with shaking. Following incubation, bound [^3H] […] Filter plates were air dried for two minutes, and then 50 uL of MicroScint-20 was added into each well. Radioactivity counts were quantified using a Top Count plate reader (Perkin Elmer). Data was analyzed using one-site binding competition non-linear regression curve fitting on GraphPad Prism.

dopamine 2S receptor = target: T3, dopamine 2S receptor (Homo sapiens, UniProt P14416); assay: β-Arrestin functional assay (dopamine), antagonist mode; format: cell-based; settings: for Fold-change Relative to Parent: IC50 relative to metoclopramide, D2S β-arrestin; for IC50: β-arrestin interaction, CHO-K1 cells expressing D2S, dopamine at EC80 (400 nM)
T3 construct: host or cells: CHO-K1 (PathHunter eXpress β-arrestin cells)
T3 sequence (P14416 1-414 isoform P14416-2): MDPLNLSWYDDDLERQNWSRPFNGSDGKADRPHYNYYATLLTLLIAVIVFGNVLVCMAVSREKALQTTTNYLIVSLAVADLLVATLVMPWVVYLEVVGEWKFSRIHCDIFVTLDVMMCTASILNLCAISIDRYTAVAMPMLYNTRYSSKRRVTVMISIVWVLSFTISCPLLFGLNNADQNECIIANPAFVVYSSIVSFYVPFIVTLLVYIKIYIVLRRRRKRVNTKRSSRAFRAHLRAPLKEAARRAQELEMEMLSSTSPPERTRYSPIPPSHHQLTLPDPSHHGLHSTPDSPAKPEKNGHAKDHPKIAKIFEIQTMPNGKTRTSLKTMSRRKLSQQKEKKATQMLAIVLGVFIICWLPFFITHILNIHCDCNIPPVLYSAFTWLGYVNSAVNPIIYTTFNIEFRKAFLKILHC

[3] = Chemical stability in potassium phosphate buffer; format: physicochemical; settings: 100 mM potassium phosphate buffer, pH 7.4 at 37° C. for up to 30 minutes
Procedure: FIG. 5B is a plot of the results of a chemical stability study of test articles in a 100 mM potassium phosphate buffer, pH 7.4 at 37° C. for up to thirty minutes.

CYP2D6 [4] = target: T4, CYP2D6 (Homo sapiens, UniProt P10635); assay: Metabolic stability in human recombinant CYP2D6 enzyme; format: in vitro ADME; parameters: purchased Xenotech, LLC; settings: 1 μM, 100 pmol/mL CYP2D6, up to 30 min, 37° C.
T4 sequence (P10635 whole entry): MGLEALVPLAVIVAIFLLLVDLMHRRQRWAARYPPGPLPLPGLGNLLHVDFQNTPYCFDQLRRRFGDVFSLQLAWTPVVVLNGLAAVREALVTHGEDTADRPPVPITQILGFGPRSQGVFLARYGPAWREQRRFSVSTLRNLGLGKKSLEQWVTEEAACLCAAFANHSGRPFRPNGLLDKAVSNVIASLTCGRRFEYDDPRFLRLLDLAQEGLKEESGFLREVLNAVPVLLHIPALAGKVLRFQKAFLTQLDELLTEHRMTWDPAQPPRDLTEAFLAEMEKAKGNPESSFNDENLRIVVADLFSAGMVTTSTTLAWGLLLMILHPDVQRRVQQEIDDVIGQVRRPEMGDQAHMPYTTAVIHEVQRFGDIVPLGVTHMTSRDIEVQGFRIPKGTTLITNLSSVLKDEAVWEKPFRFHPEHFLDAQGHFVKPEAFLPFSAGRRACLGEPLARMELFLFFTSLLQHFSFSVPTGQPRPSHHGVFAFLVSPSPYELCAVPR

dopamine 2L receptors [5] = target: T5, dopamine 2L receptors (Homo sapiens, UniProt P14416); assay: Competition binding assay (dopamine 2L receptors), [3H]methylspiperone; parameters: expressed in transfected cells; settings: for Fold-change Relative to Parent: IC50 relative to metoclopramide, D2L binding
T5 sequence (P14416 whole entry): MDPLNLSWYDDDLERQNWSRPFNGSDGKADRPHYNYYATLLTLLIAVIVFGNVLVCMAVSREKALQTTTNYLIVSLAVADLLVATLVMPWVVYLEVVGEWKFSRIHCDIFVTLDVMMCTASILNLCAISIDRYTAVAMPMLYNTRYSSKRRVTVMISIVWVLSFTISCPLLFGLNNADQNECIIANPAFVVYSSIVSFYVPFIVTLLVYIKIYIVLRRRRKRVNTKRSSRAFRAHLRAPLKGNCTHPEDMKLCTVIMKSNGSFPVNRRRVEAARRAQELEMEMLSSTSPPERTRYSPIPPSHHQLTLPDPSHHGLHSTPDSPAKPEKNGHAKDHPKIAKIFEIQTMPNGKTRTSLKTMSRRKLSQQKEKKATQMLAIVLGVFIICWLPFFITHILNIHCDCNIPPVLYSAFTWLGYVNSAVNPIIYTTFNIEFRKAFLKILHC
Procedure: [^3H] Methylspiperone was diluted in assay buffer to a final concentration of 0.4 nM. To start the assay, 1 uL of compound was added into 96-well v-bottom plates, followed by the addition of 50 uL of diluted membrane preparation, then finally diluted [^3H] Methylspiperone was added. The assay mixture was incubated for 60 minutes at room temperature with shaking. Following incubation, bound [^3H] methylspiperone on 5% PEI soaked GF/B filter plates using a Filtermate Harvester (Perkin Elmer) were then washed four times with ice cold wash buffer (50 mM Tris-HCl, pH 7.5). Filter plates were air dried for two minutes, and then 50 uL of MicroScint-20 was added into each well. Radioactivity counts were quantified using a Top Count plate reader (Perkin Elmer). Data was analyzed using one-site binding competition non-linear regression curve fitting on GraphPad Prism.

[6] = target: T1, 5HT4B receptors (serotonin 4B receptors); settings: value in brackets after the IC50; cited from earlier work
human hepatocytes = assay: MetID determination in human hepatocytes; format: in vitro ADME
Procedure: (§1) Cryopreserved human and Sprague-Dawley rat hepatocytes were thawed in a 37° C. water bath. […] Samples were obtained from separate plates for each time point during the incubation. At each sampling time, the plates were removed from the incubator, quenched by adding 100 μL cold acetonitrile, and placed in an ice bath until centrifugation at 4,000 rpm for 30 minutes at 4° C. Supernatants were stored at or below −70° C. until LC-MS/MS analysis could be conducted. The liquid chromatography system used was Agilent 1100 Autosampler, Binary Pump, DAD and Column Enclosure. Tandem mass spectrometry was conducted using a Thermo DECA XP MAX Ion Trap Mass Spectrometer. The ion source was Electrospray (+) and the LC column used was a Varian, Polaris 5 C18-A (250×2.1 mm, 5 micron) column.
(§2) Metabolic pathways of metoclopramide and conjugates were determined in rat and human hepatocytes. N-dealkylation was the major metabolic pathway for metoclopramide in rats, and metabolism in human hepatocytes was minimal. […] FIG. 2 and FIG. 3 show the metabolic pathway of for mPEG1-N-metoclopramide and mPEG4-N-metoclopramide, respectively. […] In this figure, different metabolites for each conjugate are denoted with the “M” and correspond to the designation provided in the figure for a given conjugate. For example, metabolite M1 for mPEG1-N-metoclopramide in Table 6 corresponds to M1 in FIG. 2, metabolite M2 for mPEG4-N-metoclopramide in Table 6 corresponds to M2 in FIG. 3 and metabolite M3 mPEG8-N-metoclopramide in Table 6 corresponds to M3 in FIG. 4.

[7] = test system: Sprague-Dawley rat hepatocytes; assay: MetID determination in rat hepatocytes; format: in vitro ADME
Procedure: as §1, §2

[8] = target: T2, 5HT3A receptors (serotonin 3A receptors); settings: value in brackets after the IC50; cited from earlier work
in vivo = settings: male, Sprague Dawley, rat, plasma
Procedure: (§3) Rat pharmacokinetic (“PK”) characterization was conducted in male Sprague Dawley Rats (Rattus Norvegicus) weighing between 210-260 gm (Charles River Laboratories (Hollister, Calif.)). Rats were fed a standard diet and water was available ad-libidum at all times. […] Animals were dosed either orally (2.5 mg/Kg) via gavage or intravenously (0.5 mg/kg) via the jugular vein cannula. Blood samples (˜0.15 mL) were collected through carotid artery cannula at respective time points and transferred immediately into K2EDTA-coated tubes (that contain quenching media-acetic acid, PMSF and Dichlorvos) and placed on ice. The samples were centrifuged within thirty minutes after collection at 10,000 RPM for five minutes and the resulting plasma was separated. Plasma were transferred into microfuge tubes and placed on dry ice immediately. The plasma samples were stored at approximately −70° C. until shipped on dry ice for Bioanalysis by LC/MS/MS. Urine samples were collected using metabolic cages into a tube containing citric acid (4 mg for 0-4 and 4-8 hr interval and 16 mg for 8-24 hr interval) on wet ice at the intervals specified in the study design. After the completion of urine collection at each interval, each cage was rinsed with 2 mL of deionized water (1 mL each time). The rinse was collected in the separate labeled container (containing 2 mg of citric acid) as the urine. Following this rinse another 2 ml rinse was carried out with ethanol (1 ml each time). The rinse was also collected in the separate labeled container as the urine. Samples were stored frozen at −70° C. until bioanalysis by LC/MS/MS was performed.
(§4) Pharmacokinetic parameters were determined by non-compartmental analysis using Phoenix®WinNonlin® (Version 6.3; Pharsight Corp., Mountain View, Calif.). Nominal doses and sampling times were used for the analysis. Concentrations reported as BLQ were treated as missing unless they were pre-dose; then they were set to zero. Maximum plasma concentration (Cmax) and time of observed maximum plasma analyte concentration (Tmax) were generated by Phoenix®WinNonlin®, directly from the inputed dataset. […] Area under the plasma concentration-time curve from time 0 to infinity (AUCinf) was calculated as the sum of AUClast and the last observed concentration divided by k. Total plasma clearance (CL) was calculated as Dose/AUCinf. Apparent volume of distribution at steady state (Vss) was calculated as MRTinf*CL, where MRT is the mean residence time.

dopamine 2L receptors [9] = target: T5, dopamine 2L receptors; settings: read-out: expected IC50; expected value; cited from earlier work
CYP2D6 [10] = target: T4, CYP2D6; settings: cited from earlier work
[11] = Rat PK (intravenous and oral)
Procedure: as §3, §4

[12] = [3H]methylspiperone competition, HEK 293 membranes expressing D2L, read-out: IC50
[13] = preliminary run that was not quality controlled, read-out: IC50, preliminary run
[14] = incubation of 10 μM metoclopramide, parent and its metabolites M (FIG. 1)

CCN(CCNC(=O)c1cc(Cl)c(N)cc1OC)CCOCCOCCOC [mPEG3-N-Metoclopramide]
Fold-change Relative to Parent [1]: 2.1 | IC50 [1]: 31.8 µM | Fold-change Relative to Parent [2]: 23 | IC50 ([2]; read-out: IC50): 0.00016 M | Fold-change Relative to Parent (dopamine 2S receptor): 25 | IC50 (dopamine 2S receptor): 2.05 µM and 2.06 µM | chemical stability [3]: chemically stable | metabolism by human recombinant CYP2D6 enzyme (CYP2D6 [4]): to a lesser degree than metoclopramide | Fold-change Relative to Parent (dopamine 2L receptors [5]): 41 | IC50 (dopamine 2L receptors [5]; [12]): 3.45 µM | IC50 (dopamine 2L receptors [5]; [13]): 4.65 µM and 13.1 µM

CCN(CCNC(=O)c1cc(Cl)c(N)cc1OC)CCOCCOCCOCCOCCOC [mPEG5-N-Metoclopramide]
Fold-change Relative to Parent [1]: 3.8 | IC50 [1]: 58.1 µM | Fold-change Relative to Parent [2]: 156 | IC50 ([2]; read-out: IC50): 0.00107 M | Fold-change Relative to Parent (dopamine 2S receptor): 44.1 | IC50 (dopamine 2S receptor): 3.62 µM | chemical stability [3]: chemically stable | metabolism by human recombinant CYP2D6 enzyme (CYP2D6 [4]): to a lesser degree than metoclopramide | Fold-change Relative to Parent (dopamine 2L receptors [5]): 98.5 | IC50 (dopamine 2L receptors [5]; [12]): 8.29 µM | IC50 (dopamine 2L receptors [5]; [13]): 15.1 µM

CN1[C@@H]2CC[C@H]1C[C@@H](OC(=O)c1c[nH]c3ccccc13)C2 [Tropisetron]
pKi [6]: 8.5-8.8

CCN(CCNC(=O)c1cc(Cl)c(N)cc1OC)CCOCCOCCOCCOCCOCCOC [mPEG6-N-Metoclopramide]
Fold-change Relative to Parent [1]: 3.8 | IC50 [1]: 57.8 µM | Fold-change Relative to Parent [2]: 129 | IC50 ([2]; read-out: IC50): 0.000885 M | Fold-change Relative to Parent (dopamine 2S receptor): 52.05 | IC50 (dopamine 2S receptor): 4.27 µM and 4.28 µM | chemical stability [3]: chemically stable | metabolism by human recombinant CYP2D6 enzyme (CYP2D6 [4]): to a lesser degree than metoclopramide | Fold-change Relative to Parent (dopamine 2L receptors [5]): 92.1 | IC50 (dopamine 2L receptors [5]; [12]): 7.75 µM

CCN(CC)CCNC(=O)c1cc(Cl)c(N)cc1OC [Metoclopramide, N-(2-diethylaminoethyl)-2-methoxy-4-amino-5-chlorobenzamide, reference compound]
IC50 ([2]; IC50 [M]): 6.86e-06 M | IC50 ([2]; IC50 [nM]): 6.86e-06 M | IC50 (dopamine 2S receptor): 0.0821 µM and 0.0822 µM | extent of metabolism in human hepatocytes (human hepatocytes; human hepatocytes): minimal | % of Total Metabolism, Human Hep 1 hr (human hepatocytes; [14]): 96.8% | % of Total Metabolism, Human Hep 4 hr (human hepatocytes; [14]): 97.5% | % of Total Metabolism, Rat Hep 1 hr [7, 14]: 87% | % of Total Metabolism, Rat Hep 4 hr [7, 14]: 61% | major metabolic pathway ([7]; rat hepatocytes): N-dealkylation | chemical stability [3]: chemically stable | pKi [8]: 5.9-6.4 | AUC(0-inf) (in vivo; iv, 0.5 mg/kg): 66.8 ng·h/mL | MRT inf (in vivo; iv, 0.5 mg/kg): 32.4 min | Vd (in vivo; iv, 0.5 mg/kg): 4.12 L/kg | clearance (in vivo; iv, 0.5 mg/kg): 126 mL/min/kg | half-life (in vivo; iv, 0.5 mg/kg): 30 min | AUC (in vivo; po, 2.5 mg/kg): 261 ng·h/mL | CL/F (in vivo; po, 2.5 mg/kg): 131 mL/min/kg | Cmax (in vivo; po, 2.5 mg/kg): 166 ng/mL | Tmax (in vivo; po, 2.5 mg/kg): 22.8 min | IC50 (dopamine 2L receptors [9]): 0.54 µM | time-dependent inhibition of CYP2D6 (literature / known) (CYP2D6 [10]; as reported in the literature): CYP2D6 time-dependent inhibitor | IC50 (dopamine 2L receptors [5]; [12]): 0.0842 µM | IC50 (dopamine 2L receptors [5]; [13]): 0.932 µM | CLRen ([11]; intravenous, 0.5 mg/kg): 7.2* mL/min/kg | Clast ([11]; oral gavage, 2.5 mg/Kg): 8.07 ng/mL | Tlast ([11]; oral gavage, 2.5 mg/Kg): 16 h

Fc1ccc([C@@H]2CCNC[C@H]2COc2ccc3c(c2)OCO3)cc1 [paroxetine]
time-dependent inhibition of CYP2D6 (literature / known) (CYP2D6 [10]): time-dependent inhibitor of CYP2D6
